ChEMBL document CHEMBL5608226, “Innovative Ketamine Formulations: Enhancing Therapeutic Efficacy and Safety” (ACS Med Chem Lett, 2024)

Experiments:
[1] = Ratio of Cmax for test compound to Cmax for Ketamine HCL in Sprague-Dawley rat at 4.64 mg/kg,po administration measured upto 4 hrs; format: ADME, organism-based; settings: in vivo
[2] = Ratio of AUC (0 to 4 hr) for test compound to AUC (0 to 4 hr) for Ketamine HCL in Sprague-Dawley rat at 4.64 mg/kg,po administration measured upto 4 hrs; format: ADME, organism-based; settings: in vivo

Row | SMILES | Ratio [1] [%] | Ratio [2] [%]
1 | CC(C)[C@H](NC(=O)c1ccc[n+](COC(=O)N(C)C2(c3ccccc3Cl)CCCCC2=O)c1)C(=O)O.[Cl-] (some centres not stated) | 223 | 160
2 | CN(CC(=O)O)C(=O)c1ccc[n+](COC(=O)N(C)C2(c3ccccc3Cl)CCCCC2=O)c1.[Cl-] (configuration not stated) | 112 | 93.9
3 | C[C@H](NC(=O)c1ccc[n+](COC(=O)N(C)C2(c3ccccc3Cl)CCCCC2=O)c1)C(=O)O.[Cl-] (some centres not stated) | 73.7 | 63.2
4 | CN(C(=O)OC[n+]1cccc(C(=O)N2CCC[C@H]2C(=O)O)c1)C1(c2ccccc2Cl)CCCCC1=O.[Cl-] (some centres not stated) | 178 | 166
5 | CC[C@H](C)[C@H](NC(=O)c1ccc[n+](COC(=O)N(C)C2(c3ccccc3Cl)CCCCC2=O)c1)C(=O)O.[Cl-] (some centres not stated) | 246 | 223
6 | CN(C(=O)OC[n+]1cccc(C(=O)N[C@@H](CCCCN)C(=O)O)c1)C1(c2ccccc2Cl)CCCCC1=O.Cl.[Cl-] (some centres not stated) | 71.2 | 75.4
